One assay deals with T1, ShHTL7 (Striga hermonthica, UniProt A0A0M3PNA2).
T1 sequence (A0A0M3PNA2 1-271): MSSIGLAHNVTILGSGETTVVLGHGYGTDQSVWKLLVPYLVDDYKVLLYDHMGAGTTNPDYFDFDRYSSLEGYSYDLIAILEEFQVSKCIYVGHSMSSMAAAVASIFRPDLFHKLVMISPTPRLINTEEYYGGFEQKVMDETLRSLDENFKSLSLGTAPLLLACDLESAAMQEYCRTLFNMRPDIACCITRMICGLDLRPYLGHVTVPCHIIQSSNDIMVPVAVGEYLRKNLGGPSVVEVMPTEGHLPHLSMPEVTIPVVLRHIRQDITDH
In words: YLG assay (inhibition of YLG hydrolysis) with recombinant ShHTL7. It is filed as biochemical. Conditions: 1 h incubation, read-out: IC50 in YLG assay. On the procedure:
(§1) The ORF fragment of ShHTL6 and ShHTL7 was synthesized using IDT gBlock service. The PCR amplified ShHTL6 and ShHTL7 fragment was digested with Nco I and EcoR I, and the digested product was introduced into a modified pET28 vector with an N-terminal His8 tag. Escherichia coli BL21(DE3) was used for protein expression. The overnight culture (12 ml) was added to a fresh LB medium (1.2 L) containing kanamycin (50 mg/L) at 37°C. After OD600 reached 0.8, 0.1 mM IPTG was added and the cell was further incubated at 16°C for 21 h. The culture medium was centrifuged at 3700 g and the pellet was stored at −20°C until use. The pellet was resuspended and sonicated in a lysis buffer (50 mM Tris buffer (pH 8.0) containing 500 mM NaCl, 10 mM 2-mercaptoethanol, and 10% glycerol). The supernatant was purified by Ni Sepharose TM 6 Fast Flow (500 μl, Cytiva). After washing with the washing buffer (50 mM Tris buffer (pH 8.0) containing 500 mM NaCl and 20 mM imidazole), The bound protein was eluted with elution buffer (50 mM Tris buffer (pH 8.0) containing 500 mM NaCl and 200 mM imidazole). The eluate was concentrated using VIVASPIN Turbo 15 (Sartorius), and the concentration was adjusted to 5 mg/ml. The purified protein was aliquoted to the appropriate volume, immediately frozen in liquid nitrogen, and stored at −80°C until use.
(§2) After YLG was incubated with recombinant ShHTL6 or ShHTL7 for 1 h, the fluorescence was measured by spectraMax i5 (Molecular Devices) at excitation by 480 nm and detection by 520 nm. IC50 values were calculated using the online tool Quest GraphTM IC50 Calculator (AAT Bioquest, Inc., United States; https://www.aatbio.com/tools/ ic50-calculator).

The target in the next assay is T2, ShHTL6 (Striga hermonthica, UniProt A0A0M4AUV4).
T2 sequence (A0A0M4AUV4 1-271): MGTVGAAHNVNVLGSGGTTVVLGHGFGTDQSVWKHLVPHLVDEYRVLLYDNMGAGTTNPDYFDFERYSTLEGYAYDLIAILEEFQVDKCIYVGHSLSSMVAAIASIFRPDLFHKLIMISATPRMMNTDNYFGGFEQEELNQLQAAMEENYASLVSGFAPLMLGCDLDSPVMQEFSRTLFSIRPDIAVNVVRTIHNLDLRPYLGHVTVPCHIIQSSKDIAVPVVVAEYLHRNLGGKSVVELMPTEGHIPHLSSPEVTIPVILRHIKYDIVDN
In words: YLG assay (inhibition of YLG hydrolysis) with recombinant ShHTL6. It counts as biochemical. On the procedure:
as §1, §2

In the next assay the test system is Orobanche minor seeds. In words: Germination assay, Orobanche minor seeds. It counts as in vivo. Particulars: O. minor seeds. On the procedure:
Orobanche minor seeds were washed with 70% EtOH, and then sonicated for 4 min in 1% sodium hypochlorite solution containing 0.2% Tween-20. The seeds were then washed 10 times with sterile water and suspended in 0.1% agar solution. The seeds were loaded onto 5-mm glass fiber filter disks (20–70 seeds/disk) and were conditioned at 23°C for 15 days. Each disk was transferred into a 96-well plate. A 30 μl aliquot of test chemical solution was added to the well. For the germination assay, the chemical solutions were prepared by 1,000 times dilution from each acetone stock solution with water (final acetone concentration was 0.1%). GR24 solution (0.1% acetone) and sterile water (0.1% acetone) was used as positive and negative control, respectively. The 96 well plates were incubated for 5 days at 23°C and the number of total seeds and germinated seeds was counted.

The target in the next assay is T3, AtD14 (Arabidopsis thaliana, UniProt Q9SQR3).
T3 construct: The cDNA of AtD14 was introduced into pMALHis vector; MBP; His6; made in house; host or cells: E. coli BL21 (DE3)
T3 sequence (Q9SQR3 1-267): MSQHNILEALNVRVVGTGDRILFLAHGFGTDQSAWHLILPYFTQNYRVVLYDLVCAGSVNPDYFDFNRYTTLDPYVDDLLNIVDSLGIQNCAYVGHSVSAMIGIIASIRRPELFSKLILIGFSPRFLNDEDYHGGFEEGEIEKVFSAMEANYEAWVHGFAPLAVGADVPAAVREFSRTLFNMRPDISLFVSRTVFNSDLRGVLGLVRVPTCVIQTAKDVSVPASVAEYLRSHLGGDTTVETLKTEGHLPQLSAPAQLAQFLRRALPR
In words: Hydrolysis assay with recombinant AtD14. Conditions: 10 μM substrate, 30°C, 60 min. It counts as biochemical. On the procedure:
The cDNA of AtD14 was introduced into pMALHis vector that has both MBP-tag and His6-tag. The vector was transformed in to E. coli BL21 (DE3) and the cell was precultured in LB medium containing 50 μg/ml ampicillin. Overnight cultures (10 ml) were added to fresh LB medium (1 L) containing 50 μg/ml ampicillin and it was cultured at 37°C. After OD600 reached to 0.8, the cultures were cooled at 16°C for 1 h, and then 0.1 mM IPTG was added. The culture was further incubated at 16°C for 20 h. The culture medium was centrifuged at 3,700 g and the pellet was stored at −20°C until use. The pellet was resuspended and sonicated in lysis buffer (50 mM Tris buffer (pH 8.0) containing 500 mM NaCl, 10 mM 2-mercaptoethanol, and 10% glycerol). The supernatant was purified by Ni Sepharose TM 6 Fast Flow (500 μl, Cytiva) After washing with the washing buffer (50 mM Tris buffer (pH 8.0) containing 500 mM NaCl and 20 mM imidazole), The bound protein was eluted with elution buffer (50 mM Tris buffer (pH 8.0) containing 500 mM NaCl and 200 mM imidazole). The eluate was concentrated using VIVASPIN Turbo 15 (Sartorius), and the concentration was adjusted to 5 mg/ml. The purified protein was aliquoted to the appropriate volume, immediately frozen in liquid nitrogen, and stored at −80°C until use.
Hydrolysis assays were carried out at 30°C for 60 min in 100 μl of a reaction buffer containing 0.13 pmol recombinant ShHTL7 or AtD14, 10 μM of substrate in 50 mM Phosphate-Na buffer (pH 7.0) containing 2% acetone. The enzyme reaction was stopped by addition of 100 μl of acetonitrile containing 1-naphtaleneacetic acid (NAA; 0.5 ng/μl) as an internal standard. After centrifuged at 13,000 rpm for 5 min, each sample was subjected to LC–MS/MS analysis equipped with reverse-phase column (CORTECS UPLC Phenyl 1.6 μm, ϕ2.1 × 75 mm; Waters). The concentration of remaining substrate and reaction product was calculated by using NAA as an internal standard. Detailed information about the analytical condition is described in Supplementary Table 1.

SMILES strings stand for the structures.

In the case of `CC1=CC(OC(=O)/C=C\c2ccccc2)OC1=O` (stereo not shown) [c-CASL1], the half-inhibitory concentration (IC50) stood at 0.59 µM on ShHTL7 and 0.9 µM at ShHTL6. Also, the “germination-inducing activity, times stronger than the corresponding trans isomer” value in the assay with Orobanche minor seeds was “approximately 10 times”. The “hydrolysis by AtD14” value on AtD14 is recorded as “can hydrolyze”.

A word on the IC50: it is the concentration that inhibits the measured activity by half.
